According to ChEMBL document CHEMBL1152602, “A new therapeutic approach in Parkinson's disease: some novel quinazoline derivatives as dual selective phosphodiesterase 1 inhibitors and anti-inflammatory agents” (Bioorg Med Chem, 2009):

Tests used:
[1] = test system: Rattus norvegicus; test: Antiinflammatory activity in Sprague-Dawley rat assessed as inhibition of carrageenan-induced paw edema at 50 mg/kg, ip treated 60 mins before carrageenan challenge measured after 90 mins; format: functional; settings: route intraperitoneal
[2] = test system: Rattus norvegicus; test: Toxicity in Sprague-Dawley rat assessed as gastrointestinal ulceration at 200 mg/kg, po once daily for 5 days; format: organism-based; design: dose 200 mg/kg, route oral; settings: in vivo, 120 h
[3] = test system: Rattus norvegicus; test: Antiinflammatory activity in Sprague-Dawley rat assessed as inhibition of carrageenan-induced paw edema at 50 mg/kg, po treated 60 mins before carrageenan challenge measured after 180 mins; format: functional
[4] = Inhibition of PDE1
[5] = test system: Rattus norvegicus; test: Antiinflammatory activity in Sprague-Dawley rat assessed as inhibition of carrageenan-induced paw edema at 50 mg/kg, ip treated 60 mins before carrageenan challenge measured after 180 mins; format: functional; settings: route intraperitoneal
[6] = test system: Rattus norvegicus; test: Antiinflammatory activity in Sprague-Dawley rat assessed as inhibition of carrageenan-induced paw edema at 50 mg/kg, po treated 60 mins before carrageenan challenge measured after 90 mins; format: functional

| Structure (SMILES) | inhibition in vivo at 50 mg/kg [1] | Activity [2] | inhibition in vivo at 50 mg/kg [3] | IC50 [4] | inhibition in vivo at 50 mg/kg [5] | inhibition in vivo at 50 mg/kg [6] |
| --- | --- | --- | --- | --- | --- | --- |
| COc1ccc(-c2csc3ncn4c(=O)c5ccccc5nc4c23)cc1 | 69% | Non-toxic | 71% | 66.9 µM | 74% | 57% |
| Cc1ccc(-c2cc(-c3ccc(Cl)cc3)c3c(ncn4c(=O)c5ccccc5nc34)n2)cc1 | 38% |  | 49% | 98.2 µM | 53% | 37% |
| Cc1ccc(-c2cc(-c3ccc(Cl)cc3)c3c(ncn4c(=O)c5cc(Br)ccc5nc34)n2)cc1 | 82% |  | 87% | 66.4 µM | 89% | 80% |
| O=c1c2cc(Br)ccc2nc2c3c(-c4ccccc4)cc(-c4ccc(Cl)cc4)nc3ncn12 | 69% | Non-toxic | 77% | 95.1 µM | 80% | 67% |
| COc1ccc(-c2cc(-c3ccccc3)nc3ncn4c(=O)c5cc(Br)cc(Br)c5nc4c23)cc1 | 78% | Non-toxic | 82% | 33.7 µM | 86% | 76% |
| Cc1ccc(-c2cc(Cc3ccco3)c3c(ncn4c(=O)c5ccccc5nc34)n2)cc1 | 6% |  | 22% | 56.4 µM | 20% | 11% |
| COc1ccc(-c2cc(-c3cccc([N+](=O)[O-])c3)c3c(ncn4c(=O)c5cc(Br)ccc5nc34)n2)cc1 | 13% |  | 25% | 101 µM | 30% | 12% |
| O=c1c2cc(Br)cc(Br)c2nc2c3c(-c4ccc(Cl)cc4)csc3ncn12 | 2% |  | 10% | 83.5 µM | 17% | 2% |
| COc1ccc(-c2cc(-c3cccc([N+](=O)[O-])c3)c3c(ncn4c(=O)c5ccccc5nc34)n2)cc1 | 3% |  | 9% | 39.9 µM | 16% | 3% |
| Cc1ccc(-c2cc(-c3ccccc3)nc3ncn4c(=O)c5cc(Br)cc(Br)c5nc4c23)cc1 | 62% | Non-toxic | 70% | 52.4 µM | 72% | 59% |
| Cc1ccc(-c2cc(-c3ccc(Cl)cc3)c3c(ncn4c(=O)c5cc(Br)cc(Br)c5nc34)n2)cc1 | 78% |  | 80% | 57.6 µM | 83% | 72% |
| Cc1sc2ncn3c(=O)c4cc(Br)cc(Br)c4nc3c2c1C | 11% |  | 22% | 95.7 µM | 27% | 10% |
| COc1ccc(-c2cc(-c3ccccc3)nc3ncn4c(=O)c5cc(Br)ccc5nc4c23)cc1 | 28% |  | 41% | 76.6 µM | 44% | 26% |
| Cc1sc2ncn3c(=O)c4cc(Br)ccc4nc3c2c1C | 66% |  | 71% | 146 µM | 76% | 63% |
| O=c1c2ccccc2nc2c3c(-c4ccccc4)cc(-c4ccc(Cl)cc4)nc3ncn12 | 18% |  | 26% | 80.6 µM | 34% | 18% |
| O=c1c2cc(Br)cc(Br)c2nc2c3c4c(sc3ncn12)CCCC4 | 4% |  | 15% | 104 µM | 21% | 5% |
| O=c1c2ccccc2nc2c3c(-c4ccc(Cl)cc4)csc3ncn12 | 42% | Non-toxic | 53% | 124 µM | 57% | 37% |
| Cc1ccc(-c2csc3ncn4c(=O)c5cc(Br)cc(Br)c5nc4c23)cc1 | 22% |  | 33% | 61.9 µM | 37% | 20% |
| O=c1c2ccccc2nc2c3c(-c4ccc([N+](=O)[O-])cc4)cc(-c4ccc([N+](=O)[O-])cc4)nc3ncn12 | 11% |  | 11% | 83.7 µM | 23% | 5% |

| Structure (SMILES) | inhibition in vivo at 50 mg/kg [1] | Activity [2] | inhibition in vivo at 50 mg/kg [3] | IC50 [4] | inhibition in vivo at 50 mg/kg [5] | inhibition in vivo at 50 mg/kg [6] |
| --- | --- | --- | --- | --- | --- | --- |
| Cc1ccc(-c2cc(-c3ccccc3)nc3ncn4c(=O)c5ccccc5nc4c23)cc1 | 8% |  | 15% | 91.8 µM | 20% | 8% |
| O=c1c2cc(Br)cc(Br)c2nc2c3c(-c4ccccc4)cc(-c4ccc(Cl)cc4)nc3ncn12 | 30% |  | 42% | 78 µM | 47% | 28% |
| O=c1c2cc(Br)cc(Br)c2nc2c3c(-c4ccc([N+](=O)[O-])cc4)cc(-c4ccc([N+](=O)[O-])cc4)nc3ncn12 | 47% |  | 54% | 72.5 µM | 56% | 46% |
| O=c1c2ccccc2nc2c3c4c(sc3ncn12)CCCC4 | 71% | Non-toxic | 75% | 228 µM | 81% | 70% |
| O=c1c2cc(Br)ccc2nc2c3c(-c4ccc([N+](=O)[O-])cc4)cc(-c4ccc([N+](=O)[O-])cc4)nc3ncn12 | 11% |  | 22% | 101 µM | 28% | 10% |
| O=c1c2cc(Br)ccc2nc2c3c(-c4ccc(Cl)cc4)csc3ncn12 | 29% |  | 44% | 90.5 µM | 50% | 26% |
| COc1ccc(-c2csc3ncn4c(=O)c5cc(Br)cc(Br)c5nc4c23)cc1 | 16% |  | 29% | 60.5 µM | 31% | 15% |
| O=c1c2cc(Br)ccc2nc2c3c4c(sc3ncn12)CCCC4 | 63% |  | 68% | 128 µM | 71% | 60% |
| COc1ccc(-c2cc(-c3cccc([N+](=O)[O-])c3)c3c(ncn4c(=O)c5cc(Br)cc(Br)c5nc34)n2)cc1 | 68% | Non-toxic | 74% | 72 µM | 78% | 65% |
| Cc1ccc(-c2csc3ncn4c(=O)c5ccccc5nc4c23)cc1 | 51% | Non-toxic | 62% | 230 µM | 68% | 48% |
| Cc1ccc(-c2csc3ncn4c(=O)c5cc(Br)ccc5nc4c23)cc1 | 42% |  | 52% | 85.3 µM | 56% | 40% |
| COc1ccc(-c2cc(-c3ccccc3)nc3ncn4c(=O)c5ccccc5nc4c23)cc1 | 8% |  | 18% | 72.1 µM | 22% | 7% |
| Cc1ccc(-c2cc(Cc3ccco3)c3c(ncn4c(=O)c5cc(Br)ccc5nc34)n2)cc1 | 24% |  | 37% | 72.5 µM | 41% | 13% |
| Cc1ccc(-c2cc(-c3ccccc3)nc3ncn4c(=O)c5cc(Br)ccc5nc4c23)cc1 | 60% | Non-toxic | 68% | 78.1 µM | 70% | 57% |
| COc1ccc(-c2csc3ncn4c(=O)c5cc(Br)ccc5nc4c23)cc1 | 53% |  | 59% | 82.2 µM | 70% | 50% |
| Cc1sc2ncn3c(=O)c4ccccc4nc3c2c1C | 76% | Non-toxic | 84% | 295 µM | 86% | 74% |
| COc1ccc2c(c1)c(CC(=O)O)c(C)n2C(=O)c1ccc(Cl)cc1 [INDOMETHACIN] | 76% | Toxic | 79% |  | 83% | 72% |
| CC(C)Cn1c(=O)n(C)c(=O)c2nc[nH]c21 [ISOBUTYLMETHYLXANTHINE] |  |  |  | 24.7 µM |  |  |
